Measured values as given in US10058550B2, “Methods of treating heart failure” (priority 2015, dated 2018).

Molecular target: human APJ receptor (Homo sapiens (Human), UniProt P35414)
Assay: biochemical
Format: biochemical
Conditions: read-out: Activity hAPJ SPA EC50 IP
Summary of the method: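 Agonist-stimulated [35S]GTPγS (0.2 nM) binding was read by SPA after 90 min at room temperature. Buffer: 20 mM HEPES pH 7.5 with 5 mM MgCl2, 200 mM NaCl, 3 μM GDP, 0.1% BSA; membranes were from a stable human APJ CHO line. EC50 values are averages of independent runs, fitted by non-linear regression.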

Sequence of human APJ receptor (P35414 whole entry): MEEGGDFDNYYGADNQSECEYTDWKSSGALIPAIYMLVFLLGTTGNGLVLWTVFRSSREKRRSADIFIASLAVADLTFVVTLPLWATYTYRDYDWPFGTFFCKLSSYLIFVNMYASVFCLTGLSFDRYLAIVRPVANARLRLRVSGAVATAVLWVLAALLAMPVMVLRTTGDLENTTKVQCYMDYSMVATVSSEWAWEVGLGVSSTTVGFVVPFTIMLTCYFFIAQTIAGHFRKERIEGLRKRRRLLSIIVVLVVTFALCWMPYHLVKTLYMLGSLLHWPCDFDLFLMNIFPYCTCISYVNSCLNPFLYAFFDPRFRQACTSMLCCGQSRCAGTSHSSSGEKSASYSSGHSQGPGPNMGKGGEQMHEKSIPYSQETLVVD

Structure (SMILES) | EC50
COc1cccc(OC)c1-n1c(NS(=O)(=O)[C@H](C)[C@@H](OC)c2ccc(Cl)cn2)nnc1-c1cccnc1 (single isomer, unassigned) [Example 530.0, (1S,2R)-1-(5-chloro-2-pyridinyl)-N-(4-(2,6-dimethoxyphenyl)-5-(3-pyridinyl)-4H-1,2,4-triazol-3-yl)-1-methoxy-2-propanesulfonamide or (1R,2S)-1-(5-chloro-2-pyridinyl)-N-(4-(2,6-dimethoxyphenyl)-5-(3-pyridinyl)-4H-1,2,4-triazol-3-yl)-1-methoxy-2-propanesulfonamide] | 48.5 nM
COc1cccc(OC)c1-n1c(NS(=O)(=O)[C@@H](C)[C@@](C)(F)c2ncc(C#N)cn2)nnc1-c1cncc(C)c1 (single isomer, unassigned) [Example 537.0] | 57 nM
COc1cccc(OC)c1-n1c(NS(=O)(=O)[C@@H](C)[C@@](C)(F)c2ncc(C#N)cn2)nnc1-c1cncc(C)c1 (single isomer, unassigned) [Example 538.0] | 4.5 nM
COc1cccc(OC)c1-n1c(NS(=O)(=O)[C@H](C)[C@@H](OC)c2ccc(C#N)cn2)nnc1-c1cncc(C)c1 (single isomer, unassigned) [Example 552.0] | 0.28 nM
COc1cccc(OC)c1-n1c(NS(=O)(=O)[C@H](C)[C@@H](OC)c2ccc(C#N)cn2)nnc1-c1cncc(C)c1 (single isomer, unassigned) [Example 553.0] | 41 nM
COc1cccc(OC)c1-n1c(NS(=O)(=O)[C@H](C)[C@@H](OC)c2ccc(C#N)cn2)nnc1-c1cncc(C)c1 (single isomer, unassigned) [Example 554.0] | 2.7 nM
COc1cccc(OC)c1-n1c(NS(=O)(=O)[C@H](C)[C@@H](OC)c2ccc(C#N)cn2)nnc1-c1cncc(C)c1 (single isomer, unassigned) [Example 555.0] | 41 nM
COc1cccc(OC)c1-n1c(NS(=O)(=O)[C@H](C)[C@@H](OC)c2ncc(Cl)cn2)nnc1-c1cncc(C)c1 (single isomer, unassigned) [Example 558.0] | 30 nM
COc1cccc(OC)c1-n1c(NS(=O)(=O)[C@H](C)[C@@H](OC)c2ncc(Cl)cn2)nnc1-c1cncc(C)c1 (single isomer, unassigned) [Example 559.0] | 120 nM
COc1cccc(OC)c1-n1c(NS(=O)(=O)[C@H](C)[C@@H](OC)c2ncc(Cl)cn2)nnc1-c1cncc(C)c1 (single isomer, unassigned) [Example 560.0] | 0.88 nM
CCO[C@@H](c1cnc(C)cn1)[C@@H](C)S(=O)(=O)Nc1nnc(-c2cncc(C)c2)n1-c1c(OC)cccc1OC (single isomer, unassigned) [Example 565.0, (1S,2R)—N-(4-(2,6-dimethoxyphenyl)-5-(5-methyl-3-pyridinyl)-4H-1,2,4-triazol-3-yl)-1-ethoxy-1-(5-methyl-2-pyrazinyl)-2-propanesulfonamide or (1R,2S)—N-(4-(2,6-dimethoxyphenyl)-5-(5-methyl-3-pyridinyl)-4H-1,2,4-triazol-3-yl)-1-ethoxy-1-(5-methyl-2-pyrazinyl)-2-propanesulfonamide] | 100 nM
CCO[C@@H](c1cnc(C)cn1)[C@@H](C)S(=O)(=O)Nc1nnc(-c2cncc(C)c2)n1-c1c(OC)cccc1OC (single isomer, unassigned) [Example 566.0, (1S,2R)—N-(4-(2,6-dimethoxyphenyl)-5-(5-methyl-3-pyridinyl)-4H-1,2,4-triazol-3-yl)-1-ethoxy-1-(5-methyl-2-pyrazinyl)-2-propanesulfonamide or (1R,2S)—N-(4-(2,6-dimethoxyphenyl)-5-(5-methyl-3-pyridinyl)-4H-1,2,4-triazol-3-yl)-1-ethoxy-1-(5-methyl-2-pyrazinyl)-2-propanesulfonamide] | 62 nM
COc1cccc(OC)c1-n1c(NS(=O)(=O)[C@H](C)[C@@H](O)c2cnc(C)cn2)nnc1-c1cncc(C)c1 (single isomer, unassigned) [Example 568.0, (1S,2R)—N-(4-(2,6-dimethoxyphenyl)-5-(5-methyl-3-pyridinyl)-4H-1,2,4-triazol-3-yl)-1-hydroxy-1-(5-methyl-2-pyrazinyl)-2-propanesulfonamide or (1R,2S)—N-(4-(2,6-dimethoxyphenyl)-5-(5-methyl-3-pyridinyl)-4H-1,2,4-triazol-3-yl)-1-hydroxy-1-(5-methyl-2-pyrazinyl)-2-propanesulfonamide] | 7.1 nM
COc1cccc(OC)c1-n1c(NS(=O)(=O)[C@H](C)[C@@H](O)c2cnc(C)cn2)nnc1-c1cncc(C)c1 (single isomer, unassigned) [Example 569.0, (1S,2R)—N-(4-(2,6-dimethoxyphenyl)-5-(5-methyl-3-pyridinyl)-4H-1,2,4-triazol-3-yl)-1-hydroxy-1-(5-methyl-2-pyrazinyl)-2-propanesulfonamide or (1R,2S)—N-(4-(2,6-dimethoxyphenyl)-5-(5-methyl-3-pyridinyl)-4H-1,2,4-triazol-3-yl)-1-hydroxy-1-(5-methyl-2-pyrazinyl)-2-propanesulfonamide] | 0.26 nM
COc1cccc(-c2nnc(NS(=O)(=O)[C@@H](C)[C@H](O)c3cnc(C)cn3)n2-c2c(OC)cccc2OC)n1 (single isomer, unassigned) [Example 577.0, (1R,2S)—N-(4-(2,6-dimethoxyphenyl)-5-(6-methoxy-2-pyridinyl)-4H-1,2,4-triazol-3-yl)-1-hydroxy-1-(5-methyl-2-pyrazinyl)-2-propanesulfonamide or (1S,2R)—N-(4-(2,6-dimethoxyphenyl)-5-(6-methoxy-2-pyridinyl)-4H-1,2,4-triazol-3-yl)-1-hydroxy-1-(5-methyl-2-pyrazinyl)-2-propanesulfonamide] | 0.24 nM
COc1cccc(-c2nnc(NS(=O)(=O)[C@@H](C)[C@H](O)c3cnc(C)cn3)n2-c2c(OC)cccc2OC)n1 (single isomer, unassigned) [Example 578.0, (1R,2S)—N-(4-(2,6-dimethoxyphenyl)-5-(6-methoxy-2-pyridinyl)-4H-1,2,4-triazol-3-yl)-1-hydroxy-1-(5-methyl-2-pyrazinyl)-2-propanesulfonamide or (1S,2R)—N-(4-(2,6-dimethoxyphenyl)-5-(6-methoxy-2-pyridinyl)-4H-1,2,4-triazol-3-yl)-1-hydroxy-1-(5-methyl-2-pyrazinyl)-2-propanesulfonamide] | 2.7 nM
COc1cccc(-c2nnc(NS(=O)(=O)[C@@H](C)[C@@H](O)c3ncc(C)cn3)n2-c2c(OC)cccc2OC)n1 (single isomer, unassigned) [Example 583.0] | 0.19 nM
CCO[C@@H](c1ncc(Cl)cn1)[C@H](C)S(=O)(=O)Nc1nnc(-c2cncc(C)c2)n1-c1c(OC)cccc1OC (single isomer, unassigned) [Example 609.0] | 9.4 nM
CCO[C@@H](c1ncc(Cl)cn1)[C@H](C)S(=O)(=O)Nc1nnc(-c2cncc(C)c2)n1-c1c(OC)cccc1OC (single isomer, unassigned) [Example 611.0] | 0.19 nM
CCO[C@@H](c1ncc(Cl)cn1)[C@H](C)S(=O)(=O)Nc1nnc(-c2cncc(C)c2)n1-c1c(OC)cccc1OC (single isomer, unassigned) [Example 612.0] | 13 nM
COc1cccc(OC)c1-n1c(NS(=O)(=O)[C@@H](C)[C@H](OC)c2ccc(F)cc2C#N)nnc1-c1cncc(C)c1 (single isomer, unassigned) [Example 623.0] | 130 nM
COc1cccc(OC)c1-n1c(NS(=O)(=O)[C@@H](C)[C@@H](OC(C)C)c2ncc(C)cn2)nnc1-c1cccnc1 (single isomer, unassigned) [Example 627.0, (1R,2R)-N-(4-(2,6-dimethoxyphenyl)-5-(pyridin-3-yl)-4H-1,2,4-triazol-3-yl)-1-isopropoxy-1-(5-methylpyrimidin-2-yl)propane-2-sulfonamide or (1S,2S)-N-(4-(2,6-dimethoxyphenyl)-5-(pyridin-3-yl)-4H-1,2,4-triazol-3-yl)-1-isopropoxy-1-(5-methylpyrimidin-2-yl)propane-2-sulfonamide] | 1.1 nM
COc1cccc(OC)c1-n1c(NS(=O)(=O)[C@@H](C)[C@@H](C)n2cc(C)cn2)nnc1-c1cncc(C)c1 (single isomer, unassigned) [Example 650.0] | 39 nM
COc1cccc(OC)c1-n1c(NS(=O)(=O)[C@@H](C)[C@@H](C)n2cc(C)cn2)nnc1-c1cncc(C)c1 (single isomer, unassigned) [Example 651.0] | 85 nM
COc1cccc(OC)c1-n1c(NS(=O)(=O)[C@@H](C)[C@@H](C)n2cc(C)cn2)nnc1-c1cncc(C)c1 (single isomer, unassigned) [Example 652.0] | 0.43 nM
CCOc1cccc(OC)c1-n1c(NS(=O)(=O)[C@@H](C)[C@H](OC)c2ncc(C)cn2)nnc1-c1cccc(OC)n1 (single isomer, unassigned) [Example 664.0, (1R,2S,P)—N-(4-(2-ethoxy-6-methoxyphenyl)-5-(6-methoxy-2-pyridinyl)-4H-1,2,4-triazol-3-yl)-1-methoxy-1-(5-methyl-2-pyrimidinyl)-2-propanesulfonamide or (1R,2S,M)-N-(4-(2-ethoxy-6-methoxyphenyl)-5-(6-methoxy-2-pyridinyl)-4H-1,2,4-triazol-3-yl)-1-methoxy-1-(5-methyl-2-pyrimidinyl)-2-propanesulfonamide] | 0.31 nM
COc1cnc([C@H](O)[C@@H](C)S(=O)(=O)Nc2nnc(-c3cccnc3)n2-c2c(OC)cccc2OC)cn1 (single isomer, unassigned) [Example 706.0, (1S,2R)-N-(4-(2,6-dimethoxyphenyl)-5-(3-pyridinyl)-4H-1,2,4-triazol-3-yl)-1-hydroxy-1-(5-methoxy-2-pyrazinyl)-2-propanesulfonamide or (1R,2S)-N-(4-(2,6-dimethoxyphenyl)-5-(3-pyridinyl)-4H-1,2,4-triazol-3-yl)-1-hydroxy-1-(5-methoxy-2-pyrazinyl)-2-propanesulfonamide] | 0.34 nM
COc1ccnc(OC)c1-n1c(NS(=O)(=O)[C@@H](C)[C@H](OC)c2ccc(Cl)cn2)nnc1-c1cccnc1 (single isomer, unassigned) [Example 712.0] | 0.9 nM
